Q: Which melting point does the source give for `CN1c2ccc(C=O)cc2CCC1c1ccccc1` (stereo not given) here?
A: Its melting point is 86 to 89 °C.

Q: For `Cc1cccc(C)c1NC(=O)NCCCc1cc(-c2ccccc2)n(-c2ccc(S(N)(=O)=O)cc2)n1`, which melting point is on record?
A: The melting point was 138 to 141 °C.

Q: With `CC(=O)SCC(CC(N)=O)C(=O)O` (stereo not given) as the compound, how does the melting point read?
A: The melting point was 110 to 111 °C.

Q: For `COC(=O)c1c(C)nc(C)c(C(=O)OCC2CCCO2)c1-c1ccccc1[N+](=O)[O-]` (stereo not given), which melting point is on record?
A: Its melting point is 69 to 70 °C.

Q: Which melting point does the source give for `CC(C)(C)c1cc(C(=O)NCCc2cccc([N+](=O)[O-])c2)cc(C(C)(C)C)c1O` here?
A: The melting point was 195 to 197 °C.

Q: Which melting point does the source give for `CCC(=O)Nc1ccc(CN2C(=O)[C@H]3CCC[C@H]3N(C(=O)CN3C(=O)c4ccccc4C3=O)c3ccccc32)cc1` (relative stereo) here?
A: The melting point was 286 °C.

Q: For `O=C1CCC(N2Cc3c(OCc4ccc(CN5CCNCC5)cc4)cccc3C2=O)C(=O)N1` (stereo not given), which melting point is on record?
A: Its melting point is 196 to 198 °C.

Q: Which melting point does the source give for `O=C(Nc1ccc(N2CCN(C(=O)Nc3ccc(OCCO)cc3C(F)(F)F)CC2)cc1)Nc1cccc2c1OCCO2` here?
A: Its melting point is 127 to 129 °C.

Q: Which melting point does the source give for `COc1ccc2c(c1)C(=C1CCN(C)CC1)c1ccccc1C=C2` here?
A: The melting point was 112 to 114 °C.

Q: For `CC(C)c1nn(-c2ccc(Cl)cn2)cc1C=O`, which melting point is on record?
A: The melting point was 69 to 70 °C.

Q: With `Cc1oc(-c2ccccc2)nc1COc1ccc2cc(CCCc3nnn[nH]3)oc2c1` as the compound, how does the melting point read?
A: The melting point was 139 to 140 °C.

Q: Which melting point does the source give for `CCOc1nc2ccccc2nc1NC(=O)N1CCN(c2cc(F)cc(F)c2)CC1` here?
A: The melting point was 146 to 148 °C.

Q: For `CC(C)Sc1nc(-c2nn(C)c(OC(F)F)c2Cl)c(F)cc1Cl`, which melting point is on record?
A: The melting point was 63 to 64 °C.

Q: Which melting point does the source give for `COC(=O)c1cccc(C=NO)c1` here?
A: Its melting point is 107 to 108 °C.

Q: For `CCC1=C(C)CN(C(=O)NCC2CCOc3cc(OC)c(S(=O)(=O)NC(=S)NC(C)C)cc32)C1=O` (stereo not given), which melting point is on record?
A: The melting point was 153 °C.

Q: With `COC(=O)Cc1ccc(OCCNC(=O)C2Cc3ccccc3N2S(=O)(=O)c2ccc(-c3cc(C(F)(F)F)ccc3Cl)cc2)c(OC)c1` (stereo not given) as the compound, how does the melting point read?
A: Its melting point is 51 to 58 °C.

Q: With `COc1cc2c(cc1Nc1ncc(Cl)c(Nc3ccccc3S(=O)(=O)N3CCC(O)C3)n1)CCNC(=O)C2` (stereo not given) as the compound, how does the melting point read?
A: Its melting point is 86 to 97 °C.

Q: For `Cc1c(C(=O)Nc2ccc(N3CCC(N4CCSCC4)CC3)c(C#N)c2)cnn1-c1ccc(Cl)cc1`, which melting point is on record?
A: Its melting point is 256 °C.

Q: Which melting point does the source give for `CC(C)P1(=O)c2ccccc2CN1c1ccc(Cl)cc1` (stereo not given) here?
A: Its melting point is 172 to 174 °C.

Q: Which melting point does the source give for `Cc1cc2nc3c4cc(Br)ccc4n(CCN(C)C)c3nc2cc1C` here?
A: Its melting point is 146 to 147 °C.

Q: With `CC(C)N1C(CO)=Cc2ccsc2S1(=O)=O` as the compound, how does the melting point read?
A: The melting point was 67 to 69 °C.

Q: With `CS(=O)(=O)c1ccc(C2=C(c3ccc(F)cc3)CC3(CCC3)C2)cc1` as the compound, how does the melting point read?
A: The melting point was 123 to 124 °C.

Q: With `COCC(=O)N[C@H]1CC[C@H](CCN2CCN(c3nccc4c3CCO4)CC2)CC1` as the compound, how does the melting point read?
A: Its melting point is 170 °C.

Q: Which melting point does the source give for `Cc1cccc(NC(=O)OCC2CCCCN2C)c1` (stereo not given) here?
A: Its melting point is 73.5 to 75.5 °C.

Q: Which melting point does the source give for `CCCCc1nc2c(N)nc3cccnc3c2n1CC(C)C` here?
A: The melting point was 115 to 116 °C.

Q: Which melting point does the source give for `C=C(C)Cc1c(O)c(C)c(C)c2c1CC(C)(C)N2C=O` here?
A: The melting point was 116 to 118 °C.

Q: Which melting point does the source give for `COc1ccc2c(c1)OCC(Cc1cccnc1)C2=O` (stereo not given) here?
A: Its melting point is 95 to 99 °C.

Q: With `Cc1c(OC(C)(C)C(=O)O)ccc(OCCCC#Cc2ccc(OC(F)(F)F)cc2)c1F` as the compound, how does the melting point read?
A: The melting point was 116 to 118 °C.

Q: With `CCc1ccc(C=CC(=O)NN2CC(=O)NC2=O)cc1Cl` as the compound, how does the melting point read?
A: The melting point was 231 to 234 °C.

Q: Which melting point does the source give for `Cc1ccc(S(=O)(=O)N=c2ccc(C)cn2-c2cccc(C(F)(F)F)c2)cc1` here?
A: The melting point was 174 °C.

Q: Which melting point does the source give for `CCCN(CCC)CCc1ccc(O)c(N)c1` here?
A: Its melting point is 127 to 151 °C.

Q: For `Cc1cn(-c2ccc3nc(NC(=O)c4ccc(C(C)(C)C)cc4)cn3n2)c(C)n1`, which melting point is on record?
A: The melting point was 254 to 255 °C.

Q: With `COc1c(C)c(C)c(OC)c(CO)c1C` as the compound, how does the melting point read?
A: The melting point was 121 to 122 °C.

Q: With `O=[N+]([O-])c1cc(SC(F)(F)F)[nH]c1-c1ccc(Cl)cc1` as the compound, how does the melting point read?
A: The melting point was 143 to 145 °C.

Q: With `C/C(=C(\C#N)C(N)=S)N1CCCN(c2cccc(C)c2)CC1` as the compound, how does the melting point read?
A: Its melting point is 144 to 148 °C.

Q: Which melting point does the source give for `Nc1cc(Br)nc(Br)c1[N+](=O)[O-]` here?
A: The melting point was 140 °C.

Q: Which melting point does the source give for `CC12C=CCC1C1CCC3CC(O)CCC3C1CC2` (stereo not given) here?
A: The melting point was 113 to 115 °C.

Q: With `CCCCCc1cc(OC)c(C2=C[C@H]3CC[C@]2(C(=O)O)C3(C)C)c(OC)c1` as the compound, how does the melting point read?
A: Its melting point is 84 to 86 °C.

Q: For `O=C(Nc1ccc2cc(CN3CCCC3)cnc2c1)c1ccc(-c2ccc(Cl)cc2)nc1`, which melting point is on record?
A: Its melting point is 223 to 225 °C.

Q: For `ON=C1CSc2ccccc2CN1`, which melting point is on record?
A: The melting point was 208 to 210 °C.

Q: With `O=S(=O)(c1c(-c2ccc(Cl)cc2)[nH]c(Br)c1Br)C(F)(F)C(F)F` as the compound, how does the melting point read?
A: The melting point was 138 to 141 °C.

Q: With `CNC(=O)c1cc2[nH]cnc2c(Cl)c1NC(=O)c1cc(C(F)(F)F)nn1-c1ncccc1Cl` as the compound, how does the melting point read?
A: Its melting point is 190 to 192 °C.

Q: Which melting point does the source give for `O=C(O)COCCCC1CCCN1c1cnc(-c2ccccc2)c(-c2ccccc2)n1` (stereo not given) here?
A: The melting point was 137 to 139 °C.

Q: For `Cc1ccc(Cl)c(Nc2ccccc2C(=O)CS(C)=O)c1Cl` (stereo not given), which melting point is on record?
A: The melting point was 152 to 154 °C.

Q: Which melting point does the source give for `O=C1CCCC(CNC(=O)c2cc(O)ccc2OCC(F)(F)F)N1` (stereo not given) here?
A: Its melting point is 156 to 158 °C.

Q: With `CNCC(O)c1ccc(F)cc1` (stereo not given) as the compound, how does the melting point read?
A: The melting point was 77 to 78.8 °C.

Q: With `CCOC(=O)C=Cc1cc(C=CC(=O)OC(C)(C)C)cc(Oc2cccnc2)c1` as the compound, how does the melting point read?
A: Its melting point is 116 to 118 °C.

Q: For `CC(=O)N(O)Cc1ccccc1Nc1c(Cl)ccc(C)c1Cl`, which melting point is on record?
A: The melting point was 155 to 156 °C.

Q: For `O=C(O)[C@H](Cc1ccc([N+](=O)[O-])cc1)NC1=CC(=O)C12CCCCC2`, which melting point is on record?
A: Its melting point is 120 °C.

Q: For `O=P1(C2CCCCC2)c2ccccc2CN1c1ccccc1` (stereo not given), which melting point is on record?
A: The melting point was 167 to 169 °C.
